# Test results as given in patent publication US11510952B2, “Ethanol extraction of psychoactive compounds from psilocybin fungus” (PSILO SCIENTIFIC LTD, priority 2020, dated 2022).
# Key:
# [1] = pH stability of purified psilocybin / psilocin over time under aqueous conditions; type: physicochemical; details: aqueous solutions across the pH spectrum
# Source text: The dephosphorylated indole alkaloids are well known to be unstable. Internal experiments have also quantified and substantiated these findings under aqueous conditions across the pH spectrum (Tables 5 and 6).
# [2] = Solubility of psilocybin and psilocin in solvents; type: physicochemical
# Description: Psilocybin and psilocin are soluble in methanol and water and are not soluble in isopropanol, ethanol and acetone. Experiments were performed to determine the best solvent compositions for extraction (FIGS. 32B and 32C; Table 7)
SMILES,maximum stability pH [1] [pH],solubility in acetone [2],solubility in ethanol [2],solubility in isopropanol [2],solubility in methanol [2],solubility in water [2]
CN(C)CCc1c[nH]c2cccc(O)c12 [Psilocin],4,not soluble,not soluble,not soluble,soluble,soluble
CN(C)CCc1c[nH]c2cccc(OP(=O)(O)O)c12 [Psilocybin],,not soluble,not soluble,not soluble,soluble,soluble
